Data published in patent publication US20160339080A1, “METHODS AND PHARMACEUTICAL COMPOSITIONS FOR THE TREATMENT OF HEPATOCELLULAR CARCINOMAS” (INSERM (INSTITUT NATIONAL DE LA SANTÉ ET DE LA RECHERCHE …, priority 2014, published 2016).

Tested on: SK-HEP-1 cells
Experiment: SK-HEP-1 cell growth (trypan blue-excluding adherent cells counted) and apoptosis
Type: cell-based, human
Conditions: NSC-87877 50 μM with 1 μM orexin-A, 48 h
Experimental: FIG. 1. […] SK-HEP-1 cells were challenged with (black) or without (white) 1 μM orexin-A for 48 h in the absence (wo) or presence of NSC-87877 (50 μM). At the end of the treatment, adherent cells were trypsinized, and cells excluding trypan blue were counted to measure SK-HEP-1 cell growth. Panel B : Effect of orexin-A inoculation on the growth of tumors developed by xenografting human HCC cancer cells SK-HEP-1 in nude mice. SK-HEP-1 cells were inoculated in the flank of nude mice at day 0. Mice were 2 times a week injected intraperitoneally with 100 μL of orexin-A (0,23 μmol/kg) solutions starting at day 0 (white circle) or day 22 (triangle) or with […] of PBS (black circle) for controls.
Orexins are hypothalamic peptides involved in sleep/wake control. We have shown that orexins promote robust apoptosis in colorectal cancer cells (Voisin T, El Firar A, Fasseu M, Rouyer-Fessard C, Descatoire V, Walker F, Paradis V, Bedossa P, Henin D, Lehy T, Laburthe M. (2011) Aberrant expression of OX1 receptors for orexins in colon cancers and liver metastases: an openable gate to apoptosis. Cancer Res. 71:3341-51.). […]

O=S(=O)(O)c1ccc2cc(N=Nc3cc(S(=O)(=O)O)c4cccnc4c3O)ccc2c1 [NSC-87877]
block of orexin-induced SK-HEP-1 growth inhibition: blocks orexin-induced SK-HEP-1 growth inhibitory | reversal of orexin-induced apoptosis: reverse orexin-induced apoptosis
